Results taken from ChEMBL document CHEMBL5370599, “Discovery of a 53BP1 Small Molecule Antagonist Using a Focused DNA-Encoded Library Screen” (J Med Chem, 2023).

Molecular target: TP53-binding protein 1 (Homo sapiens, UniProt Q12888)
Assay: Displacement of Biotin-p53K381acK382me2 from N-terminal his6-tagged 53BP1 (1484 to 1603 residues) (unknown origin) expressed in Rosetta2 BL21 (DE3) pLysS competent cells by TR-FRET assay
Type: single protein
Details: not given

Chain of TP53-binding protein 1 (Q12888 whole entry, the tested form may be a part): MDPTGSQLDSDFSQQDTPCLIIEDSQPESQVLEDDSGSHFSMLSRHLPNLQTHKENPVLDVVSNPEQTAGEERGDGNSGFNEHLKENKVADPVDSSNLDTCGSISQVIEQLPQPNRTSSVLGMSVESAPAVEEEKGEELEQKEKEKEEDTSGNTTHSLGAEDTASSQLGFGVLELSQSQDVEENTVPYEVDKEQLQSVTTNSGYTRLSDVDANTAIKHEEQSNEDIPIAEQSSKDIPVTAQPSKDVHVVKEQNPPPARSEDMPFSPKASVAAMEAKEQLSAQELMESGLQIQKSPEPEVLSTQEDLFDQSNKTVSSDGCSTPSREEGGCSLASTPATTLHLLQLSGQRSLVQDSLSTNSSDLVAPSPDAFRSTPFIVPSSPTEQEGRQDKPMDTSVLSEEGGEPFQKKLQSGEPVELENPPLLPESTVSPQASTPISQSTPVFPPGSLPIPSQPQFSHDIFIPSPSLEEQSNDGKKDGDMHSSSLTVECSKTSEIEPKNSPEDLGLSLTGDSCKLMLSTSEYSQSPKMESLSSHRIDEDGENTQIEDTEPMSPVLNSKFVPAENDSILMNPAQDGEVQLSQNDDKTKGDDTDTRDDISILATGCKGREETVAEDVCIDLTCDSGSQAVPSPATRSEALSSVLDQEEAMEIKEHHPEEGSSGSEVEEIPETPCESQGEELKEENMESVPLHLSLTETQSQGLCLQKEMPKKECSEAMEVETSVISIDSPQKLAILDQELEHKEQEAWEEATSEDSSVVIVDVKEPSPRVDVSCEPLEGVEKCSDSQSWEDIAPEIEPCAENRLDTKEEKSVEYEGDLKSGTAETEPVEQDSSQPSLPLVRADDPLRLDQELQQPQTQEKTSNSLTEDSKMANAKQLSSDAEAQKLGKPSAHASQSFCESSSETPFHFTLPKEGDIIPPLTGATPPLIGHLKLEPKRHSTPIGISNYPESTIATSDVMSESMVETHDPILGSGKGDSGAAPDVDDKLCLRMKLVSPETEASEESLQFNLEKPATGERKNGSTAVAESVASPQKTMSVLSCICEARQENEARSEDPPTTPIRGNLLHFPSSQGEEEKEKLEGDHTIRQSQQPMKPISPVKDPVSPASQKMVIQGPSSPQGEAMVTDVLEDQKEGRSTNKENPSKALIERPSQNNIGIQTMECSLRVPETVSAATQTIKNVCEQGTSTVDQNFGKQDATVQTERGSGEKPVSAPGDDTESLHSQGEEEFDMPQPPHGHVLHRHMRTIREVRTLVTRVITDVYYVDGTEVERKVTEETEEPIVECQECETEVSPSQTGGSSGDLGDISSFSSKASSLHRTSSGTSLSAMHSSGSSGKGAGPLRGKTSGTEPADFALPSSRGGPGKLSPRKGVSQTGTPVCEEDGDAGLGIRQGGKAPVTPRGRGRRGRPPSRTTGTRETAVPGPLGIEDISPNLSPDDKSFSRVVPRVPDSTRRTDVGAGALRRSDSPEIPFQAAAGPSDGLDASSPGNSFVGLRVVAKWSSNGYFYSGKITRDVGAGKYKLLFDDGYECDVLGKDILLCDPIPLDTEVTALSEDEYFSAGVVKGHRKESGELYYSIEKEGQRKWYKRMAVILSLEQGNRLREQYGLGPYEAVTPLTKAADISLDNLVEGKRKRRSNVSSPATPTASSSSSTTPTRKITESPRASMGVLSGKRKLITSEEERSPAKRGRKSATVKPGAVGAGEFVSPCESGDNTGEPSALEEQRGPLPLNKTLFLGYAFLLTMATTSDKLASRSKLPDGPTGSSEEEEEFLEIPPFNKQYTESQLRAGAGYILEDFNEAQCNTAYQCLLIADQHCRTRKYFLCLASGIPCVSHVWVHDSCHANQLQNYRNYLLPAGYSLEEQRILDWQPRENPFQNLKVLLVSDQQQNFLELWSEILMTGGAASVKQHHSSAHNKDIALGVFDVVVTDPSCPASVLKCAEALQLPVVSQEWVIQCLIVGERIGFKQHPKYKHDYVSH

First: CN1CCN(c2ccnc(C(=O)N3CCC[C@@H](C(=O)Nc4cccc(-c5ccc(C(N)=O)cc5)c4)C3)c2)CC1
Second: CN1CCN(c2ccnc(C(=O)N3CC[C@H](C(=O)Nc4cccc(-c5ccc(C(N)=O)cc5)c4)C3)c2)CC1
The IC50 of the first is 6.8-fold higher: 15 µM for the first, 2.2 µM for the second.

Going from `CN1CCN(c2ccnc(C(=O)N3CCC[C@H](C(=O)Nc4cc(-c5cccnc5)ncn4)C3)c2)CC1` to `CN1CCN(c2ccnc(C(=O)N3CCC[C@H](C(=O)Nc4cncc(-c5ccccc5)c4)C3)c2)CC1`, the IC50 falls from over 100 µM to 5.9 µM. The second is the more potent here.

Going from `CN1CCN(c2ccnc(C(=O)N3CCC[C@H](C(=O)Nc4cccc(-c5ccc6[nH]cnc6c5)c4)C3)c2)CC1` to `CN1CCN(c2ccnc(C(=O)N3CCC[C@H](C(=O)Nc4cccc(-c5ccc6[nH]ncc6c5)c4)C3)c2)CC1`, the IC50 falls from 38 µM to 15 µM (2.5-fold).

First: CN1CCN(c2ccnc(C(=O)N3CCC[C@H](C(=O)Nc4cccc(-c5cccc(C(=O)O)c5)c4)C3)c2)CC1
Second: CN1CCN(c2ccnc(C(=O)N3CCC[C@H](C(=O)Nc4cccc(-c5cccc(C(N)=O)c5)c4)C3)c2)CC1
The IC50 of the first is 44-fold higher: 83 µM for the first, 1.9 µM for the second. The second is the more potent here.

`CN1CCN(c2ccnc(C(=O)N3CC[C@H]3C(=O)Nc3cccc(-c4ccc(C(N)=O)cc4)c3)c2)CC1` and `CN1CCN(c2ccnc(C(=O)N3CCC[C@@H]3C(=O)Nc3cccc(-c4ccc(C(N)=O)cc4)c3)c2)CC1` are within 1.5-fold of each other in IC50: 5.7 µM for the first, 5 µM for the second.

`COC(=O)c1cccc(-c2cccc(NC(=O)[C@H]3CCCN(C(=O)c4cc(N5CCN(C)CC5)ccn4)C3)c2)c1` and `CNC(=O)c1cccc(-c2cccc(NC(=O)[C@H]3CCCN(C(=O)c4cc(N5CCN(C)CC5)ccn4)C3)c2)c1` are within 1.5-fold of each other in IC50: 10 µM for the first, 11 µM for the second.

First: COC(=O)c1ccc(-c2cccc(NC(=O)[C@H]3CCCN(C(=O)c4cc(N5CCN(C)CC5)ccn4)C3)c2)cc1
Second: CNC(=O)c1ccc(-c2cccc(NC(=O)[C@H]3CCCN(C(=O)c4cc(N5CCN(C)CC5)ccn4)C3)c2)cc1
The IC50 of the first is 1.8-fold higher: 10 µM for the first, 5.6 µM for the second.

Going from `CN1CCN(c2ccnc(C(=O)N3CCC[C@H](C(=O)Nc4cccc(-c5ccccc5)n4)C3)c2)CC1` to `CN1CCN(c2ccnc(C(=O)N3CCC[C@H](C(=O)Nc4cccc(-c5ccccc5)c4)C3)c2)CC1`, the IC50 falls from 7.4 µM to 3.8 µM (1.9-fold). The second is the more potent here.

First: CC(C)N1CCN(c2ccnc(C(=O)N3CCC[C@H](C(=O)Nc4cccc(-c5ccc(C(N)=O)cc5)c4)C3)c2)CC1
Second: CCN1CCN(c2ccnc(C(=O)N3CCC[C@H](C(=O)Nc4cccc(-c5ccc(C(N)=O)cc5)c4)C3)c2)CC1
The IC50 of the first is 2.9-fold higher: 4.1 µM for the first, 1.4 µM for the second. The second is the more potent here.

Going from `CNC(=O)[C@H]1CCCN(C(=O)c2cc(N3CCN(C)CC3)ccn2)C1` to `CN1CCN(c2ccnc(C(=O)N3CCC[C@H](C(=O)Nc4ccccc4)C3)c2)CC1`, the IC50 falls from over 100 µM to 22 µM. The second is the more potent here.

Going from `CN1CCN(c2ccnc(C(=O)N3CCC[C@H](C(=O)Nc4cccc(-c5ccc6c(c5)CCCN6)c4)C3)c2)CC1` to `CN1CCN(c2ccnc(C(=O)N3CCC[C@H](C(=O)Nc4cccc(-c5ccc6c(c5)CCN6)c4)C3)c2)CC1`, the IC50 falls from 12 µM to 7.8 µM (1.5-fold).

First: CN1CCN(c2ccnc(C(=O)N3CCC[C@H](C(=O)Nc4cccc(-c5ccc(C(=O)O)cc5)c4)C3)c2)CC1
Second: CCCN1CCN(c2ccnc(C(=O)N3CCC[C@H](C(=O)Nc4cccc(-c5ccc(C(N)=O)cc5)c4)C3)c2)CC1
The IC50 of the first is 1.7-fold lower: 8.1 µM for the first, 14 µM for the second. The first is the more potent here.

Compared with `CN1CCN(c2ccnc(C(=O)N3CCC[C@H](C(=O)Nc4cccc(-c5ccc6c(c5)CNC6=O)c4)C3)c2)CC1`, `CN1CCN(c2ccnc(C(=O)N3CCC[C@H](C(=O)Nc4cccc(-c5ccc6c(c5)CCNC6)c4)C3)c2)CC1` is 8.2-fold higher in IC50: 3.4 µM for the first, 28 µM for the second. The first is the more potent here.

`CN1CCN(c2ccnc(C(=O)N3CCC[C@H](C(=O)Nc4cccc(N5CCNCC5)c4)C3)c2)CC1` and `CN1CCN(c2ccnc(C(=O)N3CCC[C@H](C(=O)Nc4cccc(N5CCOCC5)c4)C3)c2)CC1` are within 1.5-fold of each other in IC50: 44 µM for the first, 32 µM for the second.

First: CN1CCN(c2ccnc(C(=O)N3CCC[C@H](C(=O)Nc4cccc(-c5ccccn5)c4)C3)c2)CC1
Second: CN1CCN(c2ccnc(C(=O)N3CCC[C@H](C(=O)Nc4cccc(-c5ccncc5)c4)C3)c2)CC1
The IC50 of the first is 2.7-fold higher: 18 µM for the first, 6.6 µM for the second. The second is the more potent here.

`CN1CCN(c2cccc(C(=O)N3CCC[C@H](C(=O)Nc4cccc(-c5ccc(C(N)=O)cc5)c4)C3)c2)CC1` showed an IC50 of 1.3 µM.

Test system: HEK-293T
Assay: Cytotoxicity against HEK293T cells assessed as reduction in cell viability measured upto 200 uM by celltiterglo 2.0 assay
Type: toxicity, cell-based
Details: human

With `CN1CCN(c2ccnc(C(=O)N3CCC[C@H](C(=O)Nc4cccc(-c5ccc6c(c5)CNC6)c4)C3)c2)CC1.Cl.Cl.Cl` the Activity was “Non-Toxic”.

Test system: TERT-RPE1
Assay: Cytotoxicity against human RPE-1 cells assessed as reduction in cell viability measured upto 200 uM by celltiterglo 2.0 assay
Type: toxicity, cell-based
Details: tert-rpe1, 200 µM

With `CN1CCN(c2ccnc(C(=O)N3CCC[C@H](C(=O)Nc4cccc(-c5ccc6c(c5)CNC6)c4)C3)c2)CC1.Cl.Cl.Cl` the Activity was “Non-Toxic”.
